Measured values: patent US11319283B2, “Substituted cyclobutylbenzene compounds as indoleamine 2,3-dioxygenase (IDO) inhibitors” (MERCK SHARP & DOHME CORP., priority 2017, dated 2022)

How the values were obtained:
[1] = target: T1, TDO (Homo sapiens, UniProt P48775); test: TDO Cellular Assay in Frozen SW48 Cells; type: cell-based; settings: 300 uM L-tryptophan, about 48 hours, fluorescence readout
T1 construct: endogenous in cells; host or cells: SW48 cells (A2780 cells as control with minimal TDO activity)
Protocol: TDO Cellular Assay in Frozen SW48 Cells
SW48 cells were cultured in complete RPMI culture medium (90% RPMI, 10% heat-inactivated fetal bovine serum).
Compounds to be tested were serially diluted in ten 3-fold steps in DMSO starting from 10 mM DMSO stocks in Echo low volume plate(s). […] The cells were spun down at 350 g in a table top centrifuge for 5 minutes and suspended in same volume of RPMI assay medium. […] Sterile L-tryptophan (Sigma, Cat # T0254) was added to the cells with final concentration of 300 uM.
SW48 and A2780 cells were dispensed to the respective wells of 384-well assay plates containing the compounds. The plates were incubated for about 48 hours at a 37° C., 5% CO2 incubator. Afterwards, 12 μL of 0.5 M ethyl isonipecotate (Sigma Aldrich, Cat # E33505) in dimethyl sulfoxide were added into each well and the plates were sealed and incubated at 37° C. without CO2 overnight. The plates were centrifuged for 1 minute at 200×g. The resulting fluorescence was measured in a Spectramax plate reader (Molecular Devices) with a 400 nm excitation filter and a 510 nm emission filter.
The fluorescence intensity of each well was corrected for the background observed in wells with A2780 cells and was expressed as a fraction of the intensity observed in wells of SW48 cells and DMSO only. Potencies were calculated by linear least squares fit to the four parameter logistic IC50 equation.

[2] = target: IDO1 (Homo sapiens, UniProt P14902); test: IDO1 Cellular Assay in Hela Cells Stimulated with IFNγ; type: cell-based; design: endogenous in cells; host or cells: HeLa cells stimulated with IFNγ (100 ng/mL); settings: Hela cells stimulated with IFNγ 100 ng/mL, 300 uM L-tryptophan, about 48 hours, fluorescence readout
Protocol: IDO1 Cellular Assay in Hela Cells Stimulated with IFNγ
Hela cells were cultured in complete Hela culture medium (90% EMEM, 10% heat-inactivated fetal bovine serum) and expanded to about 1×10^9 cells. The cells were then collected and frozen down at 1×10^7 cells/vial in 1 mL frozen medium (90% complete Hela culture medium, 10% DMSO)
Compounds to be tested were serially diluted in ten 3-fold steps in DMSO starting from 10 mM DMSO stocks in Echo low volume plate(s).
Frozen Hela cells were thawed and transferred into Hela assay medium (99% complete Hela culture medium, 1% Pen/Strep) with 20 mL medium/vial of cells. The cells were spun down at 250 g in a table top centrifuge for 5 min and suspended in same volume of Hela assay medium. The cells were then counted and adjusted to a density of 2×10^5 cells/ml in Hela assay medium. Sterile L-tryptophan were added to the cells with final concentration of 300 uM L-tryptophan. A small aliquot (2 mL/plate) of Hela cells were set aside and were not treated with IFNγ, to serve as the Max-E control.
Hela cells with and without IFNγ were dispensed to the respective wells of 384-well assay plates containing the compounds. The plates were incubated for about 48 hours at a 37° C., 5% CO2 incubator. Afterwards, […] of 0.5 M methyl isonipecotate in dimethyl sulfoxide were added into each well and the plates were sealed and incubated at 37° C. without CO2 overnight. The plates were centrifuged for 1 min at 200×g. The resulting fluorescence was measured in a Spectramax plate reader (Molecular Devices) with a 400 nm excitation filter and a 510 nm emission filter.
Potencies were calculated by linear least squares fit to the four parameter logistic IC50 equation.

T1 sequence (P48775 whole entry): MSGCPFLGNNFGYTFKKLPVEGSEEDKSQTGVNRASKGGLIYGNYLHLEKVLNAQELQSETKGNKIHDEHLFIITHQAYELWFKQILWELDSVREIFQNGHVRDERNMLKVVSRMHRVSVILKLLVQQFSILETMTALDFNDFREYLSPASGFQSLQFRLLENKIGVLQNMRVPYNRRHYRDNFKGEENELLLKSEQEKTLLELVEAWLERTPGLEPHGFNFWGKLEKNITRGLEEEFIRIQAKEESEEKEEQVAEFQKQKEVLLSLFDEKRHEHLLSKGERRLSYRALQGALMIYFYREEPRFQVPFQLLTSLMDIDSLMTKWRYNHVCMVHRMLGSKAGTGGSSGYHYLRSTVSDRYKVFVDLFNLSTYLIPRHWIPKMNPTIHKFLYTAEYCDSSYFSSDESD
Sequence of IDO1 (P14902 whole entry): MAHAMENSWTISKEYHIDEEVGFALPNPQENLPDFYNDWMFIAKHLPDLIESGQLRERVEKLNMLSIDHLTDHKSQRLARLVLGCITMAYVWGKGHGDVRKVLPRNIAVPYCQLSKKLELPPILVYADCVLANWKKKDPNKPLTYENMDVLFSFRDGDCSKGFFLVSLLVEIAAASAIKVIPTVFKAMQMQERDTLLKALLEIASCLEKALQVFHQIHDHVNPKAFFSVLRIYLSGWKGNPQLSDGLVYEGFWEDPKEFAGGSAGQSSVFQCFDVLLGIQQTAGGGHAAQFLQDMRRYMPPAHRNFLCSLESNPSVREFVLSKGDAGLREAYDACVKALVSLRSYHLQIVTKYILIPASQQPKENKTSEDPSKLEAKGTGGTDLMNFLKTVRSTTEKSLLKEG

Compound	IC50 [1] [nM]	IC50 [2] [nM]
CC1CC1NC(=O)C1(c2ccc(NC(=O)c3cccc(Cl)c3)cc2)CCC1 (single isomer, unassigned) [Example 22, 3-chloro-N-(4-(1-((2-methylcyclopropyl)carbamoyl)cyclobutyl)phenyl)benzamide]	≥ 10000	35
CC1CC1NC(=O)C1(c2ccc(NC(=O)c3cccc(Cl)c3)cc2)CCC1 (single isomer, unassigned) [Example 23, 3-chloro-N-(4-(1-((2-methylcyclopropyl)carbamoyl)cyclobutyl)phenyl)benzamide]	≥ 10000	78
CCCC(=O)NC1(c2ccc(NC(=O)c3cccc(Cl)c3)cc2)CCC1 [Example 1, N-(4-(1-Butyramidocyclobutyl)phenyl)-3-chlorobenzamide]		48
O=C(Nc1ccc(C2(NC(=O)c3cnccn3)CCC2)cc1)c1cccc(Cl)c1 [Example 3, N-(1-{4-[(3-chlorobenzene-1-carbonyl)amino]phenyl}cyclobutyl)pyrazine-2-carboxamide]	≥ 10000	131
O=C(Nc1ccc(C2(NC(=O)c3ncccc3Cl)CCC2)cc1)c1cccc(Cl)c1 [Example 4, 3-chloro-N-(1-{4-[(3-chlorobenzene-1-carbonyl)amino]phenyl}cyclobutyl)pyridine-2-carboxamide]	≥ 10000	136
O=C(Nc1ccc(C2(NC(=O)c3cc(Cl)ccn3)CCC2)cc1)c1cccc(Cl)c1 [Example 5, 4-chloro-N-(1-{4-[(3-chlorobenzene-1-carbonyl)amino]phenyl}cyclobutyl)pyridine-2-carboxamide]	≥ 10000	136
Cn1ccnc1C(=O)NC1(c2ccc(NC(=O)c3cccc(Cl)c3)cc2)CCC1 [Example 6, N-(1-{4-[(3-chlorobenzene-1-carbonyl)amino]phenyl}cyclobutyl)-1-methyl-1H-imidazole-2-carboxamide]	≥ 10000	577
O=C(Nc1ccc(C2(NC(=O)c3ccc(Cl)c(F)c3)CCC2)cc1)c1cccc(Cl)c1 [Example 8, 4-chloro-N-(1-{4-[(3-chlorobenzene-1-carbonyl)amino]phenyl}cyclobutyl)-3-fluorobenzamide]	≥ 10000	4
O=C(Nc1ccc(C2(NC(=O)c3ccc(Cl)cn3)CCC2)cc1)c1cccc(Cl)c1 [Example 9, 5-chloro-N-(1-{4-[(3-chlorobenzene-1-carbonyl)amino]phenyl}cyclobutyl)pyridine-2-carboxamide]	≥ 10000	11
O=C(Nc1ccc(C2(NC(=O)c3ccc(F)c(F)c3)CCC2)cc1)c1cccc(Cl)c1 [Example 10, N-(1-{4-[(3-chlorobenzene-1-carbonyl)amino]phenyl}cyclobutyl)-3,4-difluorobenzamide]	≥ 10000	14
O=C(Nc1ccc(C2(NC(=O)c3ccc(Cl)c(Cl)c3)CCC2)cc1)c1cccc(Cl)c1 [Example 11, 3,4-dichloro-N-(1-{4-[(3-chlorobenzene-1-carbonyl)amino]phenyl}cyclobutyl)benzamide]	≥ 10000	19
Cn1ccc(C(=O)NC2(c3ccc(NC(=O)c4cccc(Cl)c4)cc3)CCC2)n1 [Example 13, N-(1-{4-[(3-chlorobenzene-1-carbonyl)amino]phenyl}cyclobutyl)-1-methyl-1H-pyrazole-3-carboxamide]	≥ 10000	30
O=C(Nc1ccc(C2(NC(=O)c3cocn3)CCC2)cc1)c1cccc(Cl)c1 [Example 16, N-(1-{4-[(3-chlorobenzene-1-carbonyl)amino]phenyl}cyclobutyl)-1,3-oxazole-4-carboxamide]	≥ 10000	92
O=C(Nc1ccc(C2(C(=O)Nc3ccc(Cl)cc3)CCC2)cc1)c1cccc(Cl)c1 [Example 24, 3-chloro-N-(4-{1-[(4-chlorophenyl)carbamoyl]cyclobutyl}phenyl) benzamide]	≥ 10000	3
O=C(Nc1ccc(C2(C(=O)Nc3ccc(F)cc3F)CCC2)cc1)c1cccc(Cl)c1 [Example 25, 3-chloro-N-(4-{1-[(2,4-difluorophenyl)carbamoyl]cyclobutyl}phenyl) benzamide]	≥ 10000	3
O=C(Nc1ccc(C2(C(=O)Nc3ccc(F)c(F)c3)CCC2)cc1)c1cccc(Cl)c1 [Example 26, 3-chloro-N-(4-{1-[(3,4-difluorophenyl)carbamoyl]cyclobutyl}phenyl) benzamide]	≥ 10000	3
O=C(Nc1ccc(C2(C(=O)NC3CC(F)(F)C3)CCC2)cc1)c1cccc(Cl)c1 [Example 38, 3-chloro-N-(4-{1-[(3,3-difluorocyclobutyl)carbamoyl]cyclobutyl}phenyl) benzamide]		31
O=C(Nc1ccc(C2(C(=O)NC34CC(C3)C4)CCC2)cc1)c1cccc(Cl)c1 [Example 39, N-(4-{1-[(bicyclo[1.1.1]pentan-1-yl)carbamoyl]cyclobutyl}phenyl)-3-chlorobenzamide]		34
CC(NC(=O)C1(c2ccc(NC(=O)c3cccc(Cl)c3)cc2)CCC1)C1CC1 (centres unmarked) [Example 41, 3-chloro-N-(4-{1-[(1-cyclopropylethyl)carbamoyl]cyclobutyl}phenyl) benzamide]		101
CC(NC(=O)C1(c2ccc(NC(=O)c3cccc(Cl)c3)cc2)CCC1)C1CCCO1 (centres unmarked) [Example 43, 3-chloro-N-[4-(1-{[1-(oxolan-2-yl)ethyl]carbamoyl}cyclobutyl)phenyl]benzamide]		660
CC1CC1NC(=O)C1(c2ccc(NC(=O)c3cccc(Cl)c3)cc2)CCC1 (centres unmarked) [Example 46, 3-chloro-N-(4-{1-[(2-methylcyclopropyl)carbamoyl]cyclobutyl}phenyl) benzamide]		13
O=C(Nc1ccc(C2(C(=O)NCCC(F)(F)F)CCC2)cc1)c1cccc(Cl)c1 [Example 47, 3-chloro-N-(4-{1-[(3,3,3-trifluoropropyl)carbamoyl]cyclobutyl}phenyl) benzamide]		26
O=C(Nc1ccc(C2(C(=O)NCC3CC3)CCC2)cc1)c1cccc(Cl)c1 [Example 48, 3-chloro-N-(4-{1-[(cyclopropylmethyl)carbamoyl]cyclobutyl}phenyl)benzamide]		27
CCNC(=O)C1(c2ccc(NC(=O)c3cccc(Cl)c3)cc2)CCC1 [Example 50]		151
CCCNC(=O)C1(c2ccc(NC(=O)c3nnsc3C)cc2)CCC1 [Example 54, 5-Methyl-N-(4-(1-(propylcarbamoyl)cyclobutyl)phenyl)-1,2,3-thiadiazole-4-carboxamide]		500
CCCNC(=O)C1(c2ccc(NC(=O)c3ccc(CN)cc3)cc2)CCC1 [Example 55, 4-(aminomethyl)-N-{4-[1-(propylcarbamoyl)cyclobutyl]phenyl} benzamide]		613
CCCNC(=O)C1(c2ccc(NC(=O)c3cc(C)no3)cc2)CCC1 [Example 56, 3-methyl-N-{4-[1-(propylcarbamoyl)cyclobutyl]phenyl}-1,2-oxazole-5-carboxamide]		923
CCCNC(=O)C1(c2ccc(NC(=O)c3coc(CC)n3)cc2)CCC1 [Example 57, 2-ethyl-N-{4-[1-(propylcarbamoyl)cyclobutyl]phenyl}-1,3-oxazole-4-carboxamide]		1710
CCCNC(=O)C1(c2ccc(NC(=O)c3cn4ncccc4n3)cc2)CCC1 [Example 58, N-{4-[1-(propylcarbamoyl)cyclobutyl]phenyl}imidazo[1,2-b]pyridazine-2-carboxamide]		2010
